# In patent US20040162345A1, “Compounds with NEP/MP-inhibitory activity and uses thereof” (Solvay Pharmaceuticals GmbH, priority 2001, published 2004):
# “Also recorded” adds a separate entry of the source. Like-named read-outs stand apart in the source and are kept apart here.
# How the values were obtained:
# [1] = target: T1, His6-tagged IGS5 ectodomain (Homo sapiens, UniProt Q495T6); assay: IGS5 enzyme inhibition assay (fluorescence-quenched big-ET-1 analog, HPLC); format: biochemical; conditions: for IC50: conversion of labeled fluorescent big-ET-1 analog
# T1 construct: Enzyme: IGS-5 (sol hu)(his)6; or: His6-tagged IGS5 ectodomain;; made in house; host or cells: Sf9 insect cells, recombinant baculovirus IGBV73, purified from culture supernatant
# T1 sequence (Q495T6 49-779 limits assumed): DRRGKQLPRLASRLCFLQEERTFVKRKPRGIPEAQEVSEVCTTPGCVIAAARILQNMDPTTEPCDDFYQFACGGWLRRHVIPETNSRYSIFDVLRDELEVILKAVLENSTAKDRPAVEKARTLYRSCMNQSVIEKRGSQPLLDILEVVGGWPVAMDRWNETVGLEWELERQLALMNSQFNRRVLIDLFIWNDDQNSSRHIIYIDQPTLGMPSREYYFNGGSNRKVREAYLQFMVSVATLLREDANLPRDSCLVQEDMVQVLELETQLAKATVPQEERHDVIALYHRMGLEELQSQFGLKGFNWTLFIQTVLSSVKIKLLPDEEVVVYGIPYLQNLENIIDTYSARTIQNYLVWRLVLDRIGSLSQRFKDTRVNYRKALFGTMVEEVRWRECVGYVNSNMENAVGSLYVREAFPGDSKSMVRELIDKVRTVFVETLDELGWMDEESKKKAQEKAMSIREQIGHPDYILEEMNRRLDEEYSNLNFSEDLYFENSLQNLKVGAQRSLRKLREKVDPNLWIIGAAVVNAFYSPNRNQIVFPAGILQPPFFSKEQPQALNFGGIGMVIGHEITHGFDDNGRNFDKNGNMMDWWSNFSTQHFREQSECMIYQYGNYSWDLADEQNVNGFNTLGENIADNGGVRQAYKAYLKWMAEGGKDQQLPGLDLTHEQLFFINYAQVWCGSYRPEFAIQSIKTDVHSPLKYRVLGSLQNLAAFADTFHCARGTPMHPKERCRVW
# Protocol: The enzymatic activity of IGS5 polypeptides of the invention was tested with regard to the metabolism of biologically active peptides. In particular it was tested whether these IGS5 polypeptides may act on a variety of vasoactive peptides known in the state of the art e.g. such like atrial natriuretic peptide (ANP), bradykinin, big-endothelin (big-ET-1), endothelin (ET-1), substance P and angiotensin-1. In the context of the present invention in particular it was tested whether the IGS5 ectodomain, which is a novel human metalloprotease, hydrolyzes said vasoactive peptides. For comparison the assay was also performed for a known member of the metalloprotease family which was described earlier as soluble secreted endopeptidase (SEP) by Emoto et al. (J. Biol. Chem., Vol. 274 (1999): pp. 32469-32477). Furthermore, it was tested whether the activity of IGS5 to convert a big-ET-1 analog (the so-called 17 aa big-ET-1) may be inhibited by reference compounds that are used to determine the inhibition properties with regard to enzymes having ECE and/or NEP-characteristics.
# Enzyme: IGS-5 (sol hu)(his)6; or: His6-tagged IGS5 ectodomain;
# stock solution: 53 μg/ml in 20 mM HEPES pH 7.2, 5% glycerol, 0.005% Tween20, 100 mM NaCl, purity >99%; storage at 4° C.
# working solution: stock solution diluted with assay buffer to 10 μg/ml.
# Substrate: Mca-Asp-Ile-Ala-Trp-Phe-Dpa-[…]COOH;
# Fluorescence-quenched big-ET-1 analog;
# Assay buffer: 100 mM Tris pH 7.0, 250 mM NaCl.
# All test compounds were dissolved in DMSO at 10 mM and were further diluted with assay buffer.
# A quantity of 70 μl of the assay buffer, of 10 μl enzyme working solution and of 10 μl test compound solution were mixed in an Eppendorf vial and preincubated at 37° C. for 15 minutes. Then, 10 μl substrate stock solution was added and the reaction mixture was incubated at 37° C. for 60 minutes to allow for enzymatic hydrolysis. Subsequently the enzymatic reaction was terminated by heating at 95° C. for 5 minutes. After centrifugation (Heraeus Biofuge B, 3 min) the supernatant was subjected to HPLC analysis.
# In order to separate the remaining substrate from the cleavage products reversed phase HPLC technique was used with a CC 125/4 Nucleosil 300/5 C18 RP column and a CC 8/4 Nucleosil 100/5 C18 precolumn (commercially available from Macherey-Nagel, Düren, Germany). Thus, 60 μl of the reaction samples obtained in Example 7b were injected into the HPLC, and the column was eluted at a flow rate of 1 ml/min by applying the following gradient and solutions: […]
# The increasing fluorescence signal of the HPLC-peak of the peptide with the unquenched Mca-fluorophor after hydrolysis was taken as the basis for any calculation.
# This signal was compared for the samples with and without inhibitor and % inhibition was calculated on basis of the respective peak areas.
# % inhib=100*(1−Ainhib/Acontrol)
# All samples were run in duplicate and mean values were used.
# (§1) Furthermore, the potency of metalloprotease inhibitor compounds and reference compounds to suppress the conversion of big-ET to ET-1 was examined as described in this example 7, using a labeled fluorescent big-ET-1 analog. The procedures applied in the enzyme assays are described above in the examples 4 with regard to IGS5, in example 5 with regard to NEP, and in example 6 with regard to ECE.
# [2] = target: Neutral endopeptidase (E.C. 3.4.24.11) (Sus scrofa, UniProt A0A4X1SQE6); assay: NEP enzyme inhibition assay (methionin-enkephalin substrate, HPLC); format: biochemical, pig
# Sequence of Neutral endopeptidase (E.C. 3.4.24.11) (A0A4X1SQE6 entry or part of it): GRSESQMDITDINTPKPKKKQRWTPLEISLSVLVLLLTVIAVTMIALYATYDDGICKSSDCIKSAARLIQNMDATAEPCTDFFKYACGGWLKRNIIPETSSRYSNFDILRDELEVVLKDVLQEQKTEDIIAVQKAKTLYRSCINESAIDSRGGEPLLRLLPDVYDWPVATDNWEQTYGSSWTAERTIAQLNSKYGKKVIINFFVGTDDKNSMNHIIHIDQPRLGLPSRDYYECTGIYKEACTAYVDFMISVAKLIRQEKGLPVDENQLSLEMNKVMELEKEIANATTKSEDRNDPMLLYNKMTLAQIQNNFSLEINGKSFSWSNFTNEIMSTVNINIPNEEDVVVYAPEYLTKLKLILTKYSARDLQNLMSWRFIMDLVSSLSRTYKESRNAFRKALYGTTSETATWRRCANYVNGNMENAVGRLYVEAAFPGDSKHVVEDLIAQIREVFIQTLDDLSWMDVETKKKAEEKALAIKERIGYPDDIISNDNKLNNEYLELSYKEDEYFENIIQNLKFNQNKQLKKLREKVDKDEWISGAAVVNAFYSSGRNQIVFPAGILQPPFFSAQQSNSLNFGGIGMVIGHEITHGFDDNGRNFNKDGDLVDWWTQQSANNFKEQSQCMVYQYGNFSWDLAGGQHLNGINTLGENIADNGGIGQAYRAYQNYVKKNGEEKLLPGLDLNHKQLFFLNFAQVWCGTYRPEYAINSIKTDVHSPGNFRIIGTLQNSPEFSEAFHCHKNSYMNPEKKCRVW
# Protocol: Neutral endopeptidase (E.C. 3.4.24.11) was prepared from pig kidney cortex according to the method of Gee et al. (Biochem J 1985 May 15;228(1):119-26) and purified as reported by Relton et al. (Biochem J 1983 Dec. 1;215(3):519-23). For the enzyme inhibition assay 10 ng of the purified enzyme, 20 μM substrate (methionin-enkephalin) and various inhibitor concentrations were used. The assay buffer was 50 mM Tris-(hydroxymethyl)-aminomethan/HCl pH 7.4, the total assay volume was 100 μl. After a preincubation period of 5 min of enzyme and inhibitor, the substrate was added and subsequently a second incubation phase for enzyme induced substrate hydrolysis at 37° C. for 30 min was initiated. The enzymatic reaction was stopped by heating at 95° C. for 5 min. After centrifugation the supernatant was subjected to HPLC. The products of enzymatic substrate hydrolysis were separated from the native substrate by HPLC technique and the inhibitor potency calculated by comparing the peak areas of the products with the peak area of native substrate for both, the samples with and without inhibitor (control). Blanks without enzyme, controls without inhibitor, samples with inhibitor solvent instead of the inhibitor and samples with a standard inhibitor were added to each assay run.
# as §1
# [3] = target: T2, Recombinant human COOH-terminal His6-tagged endothelin converting enzyme-1 (Homo sapiens, UniProt P42892); assay: ECE enzyme inhibition assay (17 amino acid truncated big endothelin-1, HPLC); format: biochemical
# T2 construct: His6 (C); purchased Innogenetics, Ghent, Belgium; host or cells: Sf9 cells
# T2 sequence (P42892 1-770): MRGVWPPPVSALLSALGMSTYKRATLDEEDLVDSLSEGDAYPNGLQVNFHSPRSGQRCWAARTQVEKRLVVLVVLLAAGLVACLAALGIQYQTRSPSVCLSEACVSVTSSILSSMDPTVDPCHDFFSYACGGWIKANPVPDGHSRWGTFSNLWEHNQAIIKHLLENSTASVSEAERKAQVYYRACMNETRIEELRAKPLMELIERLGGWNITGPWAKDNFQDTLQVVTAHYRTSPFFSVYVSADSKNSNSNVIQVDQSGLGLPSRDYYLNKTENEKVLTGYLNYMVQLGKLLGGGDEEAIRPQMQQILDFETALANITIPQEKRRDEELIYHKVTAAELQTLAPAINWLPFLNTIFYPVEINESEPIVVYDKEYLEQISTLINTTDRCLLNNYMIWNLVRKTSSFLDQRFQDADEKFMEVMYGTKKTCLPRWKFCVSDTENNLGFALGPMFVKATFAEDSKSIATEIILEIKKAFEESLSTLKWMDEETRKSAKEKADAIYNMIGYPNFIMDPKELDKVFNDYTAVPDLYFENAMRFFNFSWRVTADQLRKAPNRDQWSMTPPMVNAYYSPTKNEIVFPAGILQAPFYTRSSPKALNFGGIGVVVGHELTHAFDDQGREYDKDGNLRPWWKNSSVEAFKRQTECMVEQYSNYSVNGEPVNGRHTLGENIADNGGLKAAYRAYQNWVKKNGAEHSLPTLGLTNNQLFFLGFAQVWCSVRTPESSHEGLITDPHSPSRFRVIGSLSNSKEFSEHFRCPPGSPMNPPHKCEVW
# Protocol: The enzyme inhibition assay comprised enzyme (2.8 μg), 5 μg substrate (moderately modified 17 amino acid truncated big endothelin-1), inhibitor at various final concentrations and 100 mM Tris-buffer (Tris-hydroxymethl-aminomethan/HCl, pH 7.0+150 mM NaCl) in a final volume of 100 μl. Pre-incubation of enzyme with inhibitor for 15 min at 37° C. was performed before substrate addition and incubation (60 min at 37° C.) for enzymatic hydrolysis. The enzymatic reaction was stopped by heating at 95° C. for 5 min. After centrifugation the supernatant was subjected to HPLC for separation of enzymatic hydrolysis products from undegraded substrate. % inhibition was calculated on the basis of peak areas for products and uncleaved substrate for the inhibited reaction in comparison to the control (without inhibitor). Blanks without enzyme, controls without inhibitor, samples with inhibitor solvent instead of the inhibitor and samples with a standard inhibitor were added to each assay run.
# [4] = test system: healthy volunteers; assay: Double-blind placebo-controlled clinical study, big-ET-induced pressure response; format: in vivo, human; conditions: thirteen healthy volunteers
# Protocol: (§2) To proof the concept of clinical efficacy and safety of compound Ia-2 in man, 6 clinical trials were conducted in healthy volunteers and 2 proof of concept trials were conducted in patients: One randomized, placebo-controlled double-blind trial in patients with hypertension (N=191) and one open, baseline controlled pilot trial in patients with congestive heart failure (N=29). […] In the Intent-to-treat patient population (ITT), office diastolic blood pressure versus placebo decreased by −6.9 mmHg (last value under treatment; p<0.001) and office systolic blood pressure versus placebo decreased by −9.2 mmHg (last value under treatment; p=0.003) at the highest dose investigated (200 mg bid).
# [5] = test system: patients with congestive heart failure; assay: Open, baseline controlled pilot trial in patients with congestive heart failure; format: in vivo, human
# Protocol: as §2
# [6] = test system: patients with WHO grade I-II hypertension; assay: Randomized, placebo-controlled double-blind 4-week trial in patients with hypertension; format: in vivo, human; conditions: 200 mg bid, ITT, last value under treatment
# Protocol: as §2
# [7] = test system: volunteers and patients; assay: Clinical trials, plasma ANP and cGMP following oral dosing; format: in vivo, human
# Protocol: as §2
Compound,inhibition of IGS5 activity (in words) [1],IC50 [1] [nM],IC50 [2] [nM],IC50 [3] [nM],ANP levels [4],ET-1 levels [4],big-ET levels ([4]; compared to placebo group),big-ET-induced pressure response ([4]; versus placebo),change of plasma big-ET from baseline ([5]; 200 mg),"plasma levels of big-ET following administration ([5]; 200 mg, baseline 4.9 fmol/ml) [fmol/mL]",change of plasma big-ET from baseline ([5]; 400 mg),"plasma levels of big-ET following administration ([5]; 400 mg, baseline 2.3 fmol/ml) [fmol/mL]",office diastolic blood pressure versus placebo ([6]; p<0.001) [mmHg],office systolic blood pressure versus placebo ([6]; p=0.003) [mmHg],plasma concentrations of ANP and its second messenger cGMP [7],"IC50 ([2]; 20 μM methionin-enkephalin, read-out: NEP IC50) [nM]"
O=C(O)CNC(=O)C(CS)Cc1ccccc1 (centres unmarked) [Thiorphan],no inhibition of IGS5; also recorded: do not affect the activity of IGS5,> 1000,2.4,> 10000,,,,,,,,,,,,
"CCOC(=O)[C@H](CCc1ccccc1)CC1(C(=O)N[C@H]2CCc3ccccc3N(CC(=O)O)C2=O)CCCC1 [compound Ia-2, (3S,2′R)-3-{1-[2′-(ethoxycarbonyl)-4′-phenylbutyl]-cyclopentane-1-carbonylamino}-2,3,4,5-tetrahydro-2-oxo-1H-1-benzazepine-1-acetic acid]",,1.2,,,clear dose related increase,did not increase,increased dose dependently,dose-dependently inhibited,+32.6%,6.5,+56%,3.5,−6.9,−9.2,significantly increased and sustained,
O=C(O)C(Cc1ccc2c(c1)oc1ccccc12)NCP(=O)(O)O (centres unmarked) [CGS-35066],Inhibition of IGS5 could be observed at higher concentrations only,1300,,5,,,,,,,,,,,,42
